Experiment: xn = mol fraction of the nth substance listed
Conditions: 100 kPa, Liquid; for mass density: Vibrating tube method; for speed of sound: 288.15 K, Frequency=5 MHz, Pulse-echo method

OCCCCCO [1,5-pentanediol] + O
mass density [kg/m3]
Conditions	278.15 K	283.15 K
x1 = 0.005	999.89	999.55
x1 = 0.0101	1000.22	999.78
x1 = 0.0196	1001.39	1000.73
x1 = 0.0251	1002.34	1001.54
x1 = 0.0304	1003.39	1002.41
x1 = 0.05	1006.63	1005.19
x1 = 0.0769	1009.88	1007.89
x1 = 0.1002	1012.01	1009.64
x1 = 0.1438	1013.87	1011.18
x1 = 0.1845	1014.45	1011.58
x1 = 0.2503	1014	1010.96
x1 = 0.3	1013.14	1010.06
x1 = 0.3343	1012.59	1009.43
x1 = 0.4171	1010.69	1007.58
x1 = 0.454	1009.8	1006.71
x1 = 0.5003	1008.7	1005.6
x1 = 0.5362	1007.8	1004.7
x1 = 0.6177	1006	1003
x1 = 0.6478	1005.3	1002.3
x1 = 0.7025	1004.2	1001.2
x1 = 0.7504	1003.3	1000.3
x1 = 0.7927	1002.5	999.4
x1 = 0.8605	1001.1	998.1
x1 = 0.9004	1000.2	997.3
x1 = 0.9496	999.1	996.1
x1 = 1	998	995

Conditions	speed of sound [m/s]
x1 = 0.0001	1467
x1 = 0.0002	1467.6
x1 = 0.0004	1468.5
x1 = 0.0007	1469.7
x1 = 0.001	1471.1
x1 = 0.0013	1472.4
x1 = 0.0018	1474.5
x1 = 0.0025	1477.3
x1 = 0.0032	1480.3
x1 = 0.0039	1483.3
x1 = 0.0047	1486.5
x1 = 0.0053	1489.1
x1 = 0.0059	1491.7
x1 = 0.0066	1494.6
x1 = 0.0074	1497.4
x1 = 0.0079	1499.7
x1 = 0.0086	1502.2
x1 = 0.0092	1504.6
x1 = 0.0098	1507
x1 = 0.0105	1509.5
x1 = 0.0112	1512
x1 = 0.0118	1514.3
x1 = 0.0125	1516.8
x1 = 0.0131	1519
x1 = 0.0138	1521.4
x1 = 0.0144	1523.8
x1 = 0.0151	1526.1
x1 = 0.0157	1528.2
x1 = 0.0164	1530.5
x1 = 0.0171	1532.7
x1 = 0.0177	1535
x1 = 0.0184	1537.1
x1 = 0.0188	1538.3
x1 = 0.0193	1540.1
x1 = 0.0199	1541.8
x1 = 0.0204	1543.6
x1 = 0.021	1545.5
x1 = 0.0219	1548.2
x1 = 0.0226	1550.3
x1 = 0.0233	1552.4
x1 = 0.024	1554.5
x1 = 0.0247	1556.6
x1 = 0.0256	1559.3
x1 = 0.0266	1562.2
x1 = 0.0278	1565.4
x1 = 0.0289	1568.3
x1 = 0.0299	1571
x1 = 0.0309	1573.7
x1 = 0.0319	1576.4
x1 = 0.0331	1579.3
x1 = 0.0342	1582.3
x1 = 0.0353	1584.9
x1 = 0.0365	1587.7
x1 = 0.0376	1590.3
x1 = 0.0387	1592.9
x1 = 0.0398	1595.3
x1 = 0.0409	1597.9
x1 = 0.042	1600.2
x1 = 0.0431	1602.6
x1 = 0.0445	1605.6
x1 = 0.0456	1607.8
x1 = 0.0473	1611.2
x1 = 0.0482	1612.9
x1 = 0.049	1614.5
x1 = 0.0499	1616.2
x1 = 0.0513	1618.7
x1 = 0.0529	1621.5
x1 = 0.0547	1624.7
x1 = 0.0561	1627.2
x1 = 0.0576	1629.6
x1 = 0.0595	1632.6
x1 = 0.0613	1635.3
x1 = 0.0632	1638.1
x1 = 0.0654	1641.4
x1 = 0.0673	1644
x1 = 0.0692	1646.6
x1 = 0.0715	1649.5
x1 = 0.0744	1653
x1 = 0.0768	1655.8
x1 = 0.0796	1658.9
x1 = 0.0824	1661.8
x1 = 0.0856	1665
x1 = 0.0887	1667.9
x1 = 0.0921	1670.8
x1 = 0.0965	1674.4
x1 = 0.1006	1677.4
x1 = 0.1051	1680.5
x1 = 0.1102	1683.6
x1 = 0.1153	1686.5
x1 = 0.1208	1689.2
x1 = 0.1238	1690.6
x1 = 0.1303	1693.2
x1 = 0.1382	1696
x1 = 0.1442	1697.7
x1 = 0.1503	1699.3
x1 = 0.1556	1700.5
x1 = 0.1612	1701.6
x1 = 0.167	1702.6
x1 = 0.1694	1703
x1 = 0.1748	1703.7
x1 = 0.1799	1704.3
x1 = 0.1852	1704.8
x1 = 0.1903	1705.2
x1 = 0.1955	1705.6
x1 = 0.2007	1705.9
x1 = 0.2046	1706

Reference: the NIST ThermoML archive (doi:10.1016/j.jct.2017.06.001)
